{"source": "patent US20120108563A1", "about": "“Methods Of Treating Liposarcoma” (Infinity Pharmaceuticals, Inc., priority 2009, published 2012)", "system": "dedifferentiated metastatic liposarcoma", "assay": "Administration of compound 2 to a human subject with dedifferentiated metastatic liposarcoma (imaging assessment, RECIST)", "format": "in vivo", "settings": "one human patient", "experimental": "A human subject with dedifferentiated metastatic liposarcoma was treated with compound 2 at 400 mg/m^2. The patient received two doses of compound 2 at 400 mg/m^2 during the first cycle of therapy. The patient received two doses at 300 mg/m^2 during the second cycle of therapy. The patient then received 225 mg/m^2 for seven cycles of therapy. […] The patient received a total of 9 cycles of compound 2 with maximal tumor shrinkage occurring after 7 cycles (54% tumor shrinkage).", "key": {"[1]": {"settings": "after first cycle of therapy (two doses at 400 mg/m^2)"}}}
{"smiles": "C=CCNc1c(O)cc2c(O)c1C[C@@H](C)C[C@H](OC)[C@H](O)[C@@H](C)/C=C(\\C)[C@H](OC(N)=O)[C@@H](OC)/C=C\\C=C(/C)C(=O)N2.Cl", "note": "[compound 2, Hydrochloride Salt of the Hydroquinone of 17-AAG]", "values": [{"measurement": "maximal tumor shrinkage", "setting": "after 7 cycles, of 9 cycles in total", "result": 54, "unit": "%"}, {"measurement": "imaging assessment of response (RECIST)", "setting": "[1]", "result": "stable disease"}, {"measurement": "tumor shrinkage using Response Evaluation Criteria in Solid Tumors (RECIST)", "setting": "[1]", "result": 28, "unit": "%"}, {"measurement": "response achieved", "setting": "by the end of cycle 3", "result": "partial response"}, {"measurement": "tumor shrinkage", "setting": "by the end of cycle 3 (cycle 1 at 400 mg/m^2, cycle 2 at 300 mg/m^2, then 225 mg/m^2)", "result": 35, "unit": "%"}]}
